Measured values as given in ChEMBL document CHEMBL5465560, “Selectivity Literature for EUbOPEN Chemogenomic Library” (2024).

Tests used:
[1] = target: Ribosomal protein S6 kinase alpha-3 (Homo sapiens, UniProt P51812); experiment: Selectivity interaction (KinomeScan (DiscoverX)) EUB0000666a RPS6KA3; conditions: at 10 µM
[2] = system: Tyrosine-protein kinase ABL1 (Homo sapiens), P00519 [T315I]; experiment: Selectivity interaction (KinomeScan (DiscoverX)) EUB0000666a ABL1; conditions: at 10 µM
[3] = target: STE20/SPS1-related proline-alanine-rich protein kinase (Homo sapiens) (UniProt Q9UEW8); experiment: Selectivity interaction (KinomeScan (DiscoverX)) EUB0001079a STK39; conditions: at 1 µM
[4] = target: Mast/stem cell growth factor receptor Kit (Homo sapiens, UniProt P10721); experiment: Selectivity interaction (KinomeScan (DiscoverX)) EUB0001079a KIT; conditions: at 1 µM
[5] = target: Mitogen-activated protein kinase kinase kinase kinase 1 (Homo sapiens) (UniProt Q92918); experiment: Selectivity interaction (KinomeScan (DiscoverX)) EUB0000595a MAP4K1; conditions: at 10 µM
[6] = target: Ribosomal protein S6 kinase alpha-6 (Homo sapiens, UniProt Q9UK32); experiment: Selectivity interaction (KinomeScan (DiscoverX)) EUB0000045b RPS6KA6; conditions: at 1 µM
[7] = target: Mitogen-activated protein kinase 9 (Homo sapiens, UniProt P45984); conditions: at 10 µM
[8] = target: T1, NUAK family SNF1-like kinase 2 (Homo sapiens) (UniProt Q9H093); experiment: Selectivity interaction (KinomeScan (DiscoverX)) EUB0001619a NUAK2; conditions: at 1 µM
T1 sequence (whole entry): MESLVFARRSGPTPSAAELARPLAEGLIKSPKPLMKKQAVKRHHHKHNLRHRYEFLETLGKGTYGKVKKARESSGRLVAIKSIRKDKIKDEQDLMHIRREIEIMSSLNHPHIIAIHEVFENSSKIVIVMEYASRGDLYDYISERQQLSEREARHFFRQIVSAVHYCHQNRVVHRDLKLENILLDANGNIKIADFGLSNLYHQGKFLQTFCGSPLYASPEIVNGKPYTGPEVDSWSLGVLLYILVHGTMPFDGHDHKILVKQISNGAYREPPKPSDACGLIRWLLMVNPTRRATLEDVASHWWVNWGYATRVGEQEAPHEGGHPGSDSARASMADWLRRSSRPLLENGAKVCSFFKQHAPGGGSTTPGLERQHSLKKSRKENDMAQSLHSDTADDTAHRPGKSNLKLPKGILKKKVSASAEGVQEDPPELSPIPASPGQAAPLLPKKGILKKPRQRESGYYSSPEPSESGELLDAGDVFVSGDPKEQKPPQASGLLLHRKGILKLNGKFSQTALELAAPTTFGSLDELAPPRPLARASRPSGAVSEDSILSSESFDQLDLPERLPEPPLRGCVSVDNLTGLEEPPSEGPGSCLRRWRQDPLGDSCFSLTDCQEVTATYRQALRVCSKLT

[9] = target: Tyrosine-protein kinase HCK (Homo sapiens) (UniProt P08631); experiment: Selectivity interaction (KinomeScan (DiscoverX)) EUB0001619a HCK; conditions: at 1 µM
[10] = target: Serine/threonine-protein kinase MARK2 (Homo sapiens) (UniProt Q7KZI7); experiment: Selectivity interaction (ActivX KiNativ screen (ex vivo kinase selectivity in human PBMCs)) EUB0001619a MARK2; type: cell-based; conditions: PBMC, at 1 µM
[11] = target: T2, Serine/threonine-protein kinase 4 (Homo sapiens) (UniProt Q13043); experiment: Selectivity interaction (KinomeScan (DiscoverX)) EUB0000695a STK4; conditions: at 100 nM
T2 sequence (whole entry): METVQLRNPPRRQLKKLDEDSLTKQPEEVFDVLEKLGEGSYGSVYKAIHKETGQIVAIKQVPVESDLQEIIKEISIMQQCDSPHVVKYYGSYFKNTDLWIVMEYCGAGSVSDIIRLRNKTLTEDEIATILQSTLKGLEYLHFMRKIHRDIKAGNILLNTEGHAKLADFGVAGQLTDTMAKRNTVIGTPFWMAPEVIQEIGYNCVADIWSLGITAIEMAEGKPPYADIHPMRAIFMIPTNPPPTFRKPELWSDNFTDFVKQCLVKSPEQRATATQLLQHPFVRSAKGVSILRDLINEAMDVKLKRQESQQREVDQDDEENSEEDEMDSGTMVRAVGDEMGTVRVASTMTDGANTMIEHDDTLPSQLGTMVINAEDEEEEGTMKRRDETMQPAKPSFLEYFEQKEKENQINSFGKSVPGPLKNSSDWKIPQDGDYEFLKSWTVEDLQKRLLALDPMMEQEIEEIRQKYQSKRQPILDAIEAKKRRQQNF

[12] = target: T3, Membrane-associated tyrosine- and threonine-specific cdc2-inhibitory kinase (Homo sapiens) (UniProt Q99640); experiment: Selectivity interaction (KinomeScan (DiscoverX)) EUB0000607a PKMYT1; conditions: at 10 µM
T3 sequence (whole entry): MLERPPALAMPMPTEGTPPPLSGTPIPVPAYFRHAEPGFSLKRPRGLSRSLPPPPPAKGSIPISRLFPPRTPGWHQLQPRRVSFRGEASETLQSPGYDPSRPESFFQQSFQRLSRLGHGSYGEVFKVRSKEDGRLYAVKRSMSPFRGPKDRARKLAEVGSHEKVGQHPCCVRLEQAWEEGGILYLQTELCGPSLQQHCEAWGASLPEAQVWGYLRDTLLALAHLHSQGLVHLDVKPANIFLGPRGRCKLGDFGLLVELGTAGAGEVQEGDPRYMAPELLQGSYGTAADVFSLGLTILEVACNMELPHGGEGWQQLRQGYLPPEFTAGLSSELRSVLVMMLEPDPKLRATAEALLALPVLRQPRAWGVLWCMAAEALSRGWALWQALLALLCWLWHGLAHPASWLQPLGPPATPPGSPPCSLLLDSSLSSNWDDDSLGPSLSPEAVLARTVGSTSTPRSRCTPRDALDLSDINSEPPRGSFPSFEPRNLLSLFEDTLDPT

[13] = target: Serine/threonine-protein kinase PAK 2 (Homo sapiens) (UniProt Q13177); experiment: Selectivity interaction (KinomeScan (DiscoverX)) EUB0000607a PAK2; conditions: at 10 µM
[14] = target: T4, Muscarinic acetylcholine receptor M1 (Homo sapiens) (UniProt P11229); experiment: Selectivity interaction (Panel of non-epigenetic targets (kinases, GPCRs, ion channels, and transporters, Eurofins) ) EUB0000271b CHRM1; conditions: at 1 µM
T4 sequence (whole entry): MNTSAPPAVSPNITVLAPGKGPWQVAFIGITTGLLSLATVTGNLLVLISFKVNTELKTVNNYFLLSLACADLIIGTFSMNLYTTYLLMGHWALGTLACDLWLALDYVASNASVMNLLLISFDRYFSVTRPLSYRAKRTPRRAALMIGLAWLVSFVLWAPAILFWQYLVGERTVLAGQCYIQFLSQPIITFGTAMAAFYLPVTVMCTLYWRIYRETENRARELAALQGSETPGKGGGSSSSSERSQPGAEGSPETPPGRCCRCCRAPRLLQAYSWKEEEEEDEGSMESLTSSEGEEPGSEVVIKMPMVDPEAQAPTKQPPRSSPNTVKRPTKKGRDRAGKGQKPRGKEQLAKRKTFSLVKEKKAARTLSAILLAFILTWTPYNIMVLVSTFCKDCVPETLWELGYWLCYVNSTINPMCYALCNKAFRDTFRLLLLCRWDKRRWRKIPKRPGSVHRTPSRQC

Ribosomal protein S6 kinase alpha-3, sequence (P51812 whole entry): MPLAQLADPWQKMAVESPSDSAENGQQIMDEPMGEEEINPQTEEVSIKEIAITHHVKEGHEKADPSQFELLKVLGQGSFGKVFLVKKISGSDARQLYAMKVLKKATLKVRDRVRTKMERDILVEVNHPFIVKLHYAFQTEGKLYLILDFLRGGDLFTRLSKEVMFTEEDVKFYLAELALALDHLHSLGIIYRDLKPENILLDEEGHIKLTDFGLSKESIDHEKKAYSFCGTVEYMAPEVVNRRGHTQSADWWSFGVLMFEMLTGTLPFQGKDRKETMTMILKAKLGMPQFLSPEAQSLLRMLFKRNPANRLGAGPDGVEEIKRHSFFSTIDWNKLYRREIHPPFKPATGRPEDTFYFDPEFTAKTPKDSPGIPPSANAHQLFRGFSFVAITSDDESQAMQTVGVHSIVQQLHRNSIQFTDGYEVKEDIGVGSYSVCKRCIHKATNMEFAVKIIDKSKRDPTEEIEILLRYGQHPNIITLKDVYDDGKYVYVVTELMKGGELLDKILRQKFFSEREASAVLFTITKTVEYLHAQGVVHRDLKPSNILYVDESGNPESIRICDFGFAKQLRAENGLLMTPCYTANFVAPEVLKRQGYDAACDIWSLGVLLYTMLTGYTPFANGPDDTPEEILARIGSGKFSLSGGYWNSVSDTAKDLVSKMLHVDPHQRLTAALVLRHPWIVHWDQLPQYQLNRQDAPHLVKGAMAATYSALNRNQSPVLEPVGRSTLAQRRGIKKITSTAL
Ribosomal protein S6 kinase alpha-6, sequence (Q9UK32 whole entry): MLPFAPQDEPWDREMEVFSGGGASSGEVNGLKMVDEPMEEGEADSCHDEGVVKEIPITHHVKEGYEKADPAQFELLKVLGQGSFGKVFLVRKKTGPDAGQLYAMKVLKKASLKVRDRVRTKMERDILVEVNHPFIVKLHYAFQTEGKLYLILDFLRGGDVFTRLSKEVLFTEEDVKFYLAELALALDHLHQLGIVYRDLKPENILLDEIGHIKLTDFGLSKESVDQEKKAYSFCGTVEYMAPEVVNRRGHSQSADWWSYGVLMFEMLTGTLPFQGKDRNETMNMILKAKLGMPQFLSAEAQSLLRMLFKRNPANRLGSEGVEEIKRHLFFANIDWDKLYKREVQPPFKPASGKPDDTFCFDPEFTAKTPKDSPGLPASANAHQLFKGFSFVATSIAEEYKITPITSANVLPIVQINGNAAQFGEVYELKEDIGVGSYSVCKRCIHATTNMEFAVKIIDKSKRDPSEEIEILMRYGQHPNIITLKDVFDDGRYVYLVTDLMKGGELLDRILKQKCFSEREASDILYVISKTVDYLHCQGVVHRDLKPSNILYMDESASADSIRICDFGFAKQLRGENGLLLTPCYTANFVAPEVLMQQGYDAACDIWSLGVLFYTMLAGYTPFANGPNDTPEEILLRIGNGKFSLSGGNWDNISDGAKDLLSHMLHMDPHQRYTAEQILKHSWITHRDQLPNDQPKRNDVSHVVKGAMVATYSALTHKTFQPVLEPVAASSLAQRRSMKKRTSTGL
Mitogen-activated protein kinase 9, sequence (P45984 whole entry, looked up): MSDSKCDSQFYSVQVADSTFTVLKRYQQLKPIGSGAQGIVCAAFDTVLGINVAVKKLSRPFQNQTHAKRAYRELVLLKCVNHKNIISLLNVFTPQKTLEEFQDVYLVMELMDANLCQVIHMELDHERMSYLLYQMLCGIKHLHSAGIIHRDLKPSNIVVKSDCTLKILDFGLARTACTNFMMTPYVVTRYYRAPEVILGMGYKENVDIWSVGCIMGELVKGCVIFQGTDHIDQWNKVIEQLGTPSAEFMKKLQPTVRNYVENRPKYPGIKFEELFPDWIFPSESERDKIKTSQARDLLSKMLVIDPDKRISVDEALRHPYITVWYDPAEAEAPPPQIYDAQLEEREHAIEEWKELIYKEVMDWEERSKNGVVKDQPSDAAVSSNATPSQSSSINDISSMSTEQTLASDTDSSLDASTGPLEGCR
Tyrosine-protein kinase HCK (Homo sapiens), sequence (P08631 2-526 limits assumed): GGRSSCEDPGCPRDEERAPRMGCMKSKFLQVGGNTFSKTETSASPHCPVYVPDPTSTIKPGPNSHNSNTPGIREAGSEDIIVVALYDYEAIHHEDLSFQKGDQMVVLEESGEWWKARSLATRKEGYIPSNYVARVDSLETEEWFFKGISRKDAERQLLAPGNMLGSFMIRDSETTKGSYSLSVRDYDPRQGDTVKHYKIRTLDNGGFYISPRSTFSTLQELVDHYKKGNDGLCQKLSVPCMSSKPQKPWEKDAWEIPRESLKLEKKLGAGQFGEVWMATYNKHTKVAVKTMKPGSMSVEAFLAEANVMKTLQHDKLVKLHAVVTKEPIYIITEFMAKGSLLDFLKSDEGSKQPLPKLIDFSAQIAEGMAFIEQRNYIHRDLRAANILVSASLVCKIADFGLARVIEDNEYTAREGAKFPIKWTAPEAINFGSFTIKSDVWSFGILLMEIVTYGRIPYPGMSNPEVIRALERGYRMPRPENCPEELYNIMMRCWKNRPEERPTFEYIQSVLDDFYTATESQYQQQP
Mitogen-activated protein kinase kinase kinase kinase 1 (Homo sapiens), sequence (Q92918 whole entry, looked up): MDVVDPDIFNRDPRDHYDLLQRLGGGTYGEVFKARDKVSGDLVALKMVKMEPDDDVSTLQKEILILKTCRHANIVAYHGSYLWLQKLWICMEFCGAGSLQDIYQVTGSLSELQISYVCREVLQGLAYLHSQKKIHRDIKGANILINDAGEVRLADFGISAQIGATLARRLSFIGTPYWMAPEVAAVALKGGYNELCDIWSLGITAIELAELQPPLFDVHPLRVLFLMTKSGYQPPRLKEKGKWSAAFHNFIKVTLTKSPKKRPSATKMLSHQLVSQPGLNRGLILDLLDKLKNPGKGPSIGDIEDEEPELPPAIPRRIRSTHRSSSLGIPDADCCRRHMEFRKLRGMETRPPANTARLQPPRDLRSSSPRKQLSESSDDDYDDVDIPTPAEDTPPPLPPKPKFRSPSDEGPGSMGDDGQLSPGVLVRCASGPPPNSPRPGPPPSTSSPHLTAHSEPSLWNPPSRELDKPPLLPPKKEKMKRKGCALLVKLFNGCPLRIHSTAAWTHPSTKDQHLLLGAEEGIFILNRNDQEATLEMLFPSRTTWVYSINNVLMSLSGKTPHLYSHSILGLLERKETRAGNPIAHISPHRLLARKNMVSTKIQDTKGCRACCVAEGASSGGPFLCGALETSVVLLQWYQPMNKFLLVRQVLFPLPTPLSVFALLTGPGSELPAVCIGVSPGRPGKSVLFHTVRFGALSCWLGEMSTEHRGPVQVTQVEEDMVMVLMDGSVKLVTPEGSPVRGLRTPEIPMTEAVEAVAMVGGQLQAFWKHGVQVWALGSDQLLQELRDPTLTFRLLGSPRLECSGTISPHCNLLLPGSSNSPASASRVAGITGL
Mast/stem cell growth factor receptor Kit, sequence (P10721 whole entry): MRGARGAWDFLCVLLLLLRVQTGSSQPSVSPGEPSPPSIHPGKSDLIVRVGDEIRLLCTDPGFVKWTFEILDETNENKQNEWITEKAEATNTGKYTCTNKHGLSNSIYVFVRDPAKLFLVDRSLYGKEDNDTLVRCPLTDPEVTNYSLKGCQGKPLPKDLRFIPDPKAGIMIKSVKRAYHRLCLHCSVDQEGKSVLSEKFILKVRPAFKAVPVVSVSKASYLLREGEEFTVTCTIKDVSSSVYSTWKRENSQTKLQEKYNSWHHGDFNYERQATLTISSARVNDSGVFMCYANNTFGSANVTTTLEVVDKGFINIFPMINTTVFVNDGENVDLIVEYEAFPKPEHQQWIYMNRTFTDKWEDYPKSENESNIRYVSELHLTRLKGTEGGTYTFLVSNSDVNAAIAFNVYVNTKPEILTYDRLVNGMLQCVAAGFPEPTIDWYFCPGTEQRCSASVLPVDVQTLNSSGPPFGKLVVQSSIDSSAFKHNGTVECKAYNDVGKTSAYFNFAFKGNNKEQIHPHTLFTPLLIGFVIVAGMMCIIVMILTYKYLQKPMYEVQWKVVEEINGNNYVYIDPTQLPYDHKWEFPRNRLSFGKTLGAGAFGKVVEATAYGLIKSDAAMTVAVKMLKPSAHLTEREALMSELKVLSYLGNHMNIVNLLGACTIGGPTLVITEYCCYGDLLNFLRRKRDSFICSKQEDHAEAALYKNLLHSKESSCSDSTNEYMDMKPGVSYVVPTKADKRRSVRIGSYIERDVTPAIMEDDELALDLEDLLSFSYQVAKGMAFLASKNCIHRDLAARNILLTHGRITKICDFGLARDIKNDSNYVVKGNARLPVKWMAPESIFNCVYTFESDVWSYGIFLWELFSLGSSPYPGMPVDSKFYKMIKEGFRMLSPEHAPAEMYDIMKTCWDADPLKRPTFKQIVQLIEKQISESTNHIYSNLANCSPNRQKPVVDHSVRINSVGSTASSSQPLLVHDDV
Serine/threonine-protein kinase MARK2 (Homo sapiens), sequence (Q7KZI7 whole entry): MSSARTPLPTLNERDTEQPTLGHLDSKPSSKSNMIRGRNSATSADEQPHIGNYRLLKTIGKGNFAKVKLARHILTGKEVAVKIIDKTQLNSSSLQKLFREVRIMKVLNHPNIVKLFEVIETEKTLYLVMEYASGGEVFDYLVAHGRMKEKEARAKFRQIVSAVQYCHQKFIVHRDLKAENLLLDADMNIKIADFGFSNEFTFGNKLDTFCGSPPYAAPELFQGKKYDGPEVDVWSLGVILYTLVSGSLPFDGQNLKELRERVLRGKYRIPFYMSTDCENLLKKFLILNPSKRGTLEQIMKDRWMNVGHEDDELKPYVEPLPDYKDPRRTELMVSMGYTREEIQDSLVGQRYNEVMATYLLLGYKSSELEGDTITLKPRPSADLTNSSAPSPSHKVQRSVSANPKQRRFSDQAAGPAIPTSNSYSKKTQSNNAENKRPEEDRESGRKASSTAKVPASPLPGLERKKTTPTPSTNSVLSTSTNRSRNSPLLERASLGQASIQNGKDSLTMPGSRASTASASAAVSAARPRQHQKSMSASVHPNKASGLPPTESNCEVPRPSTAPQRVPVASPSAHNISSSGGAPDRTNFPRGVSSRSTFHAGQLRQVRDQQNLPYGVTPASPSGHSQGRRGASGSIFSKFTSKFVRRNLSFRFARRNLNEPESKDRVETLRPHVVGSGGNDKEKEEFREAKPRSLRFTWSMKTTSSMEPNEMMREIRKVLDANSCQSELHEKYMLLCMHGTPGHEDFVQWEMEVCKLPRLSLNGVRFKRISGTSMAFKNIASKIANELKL

## O=C(NOC[C@H](O)CO)c1ccc(F)c(F)c1Nc1ccc(I)cc1F
[1]
  % of control: 100%
[2]
  % of control: 86%

## Nc1cnc(N2CCc3cc(S(=O)(=O)Nc4c(F)cc(Cl)cc4F)cc(N4CCCC4=O)c32)nc1 [TP-020n]
[3]
  % of control: 100%
[4]
  % of control: 100%

## COCC(=O)NC/C=C/c1ccc2ncnc(Nc3ccc(Oc4ccc(C)nc4)c(C)c3)c2c1 [CP-724714]
[5]
  % of control: 91%

## C=CC(=O)Nc1cc(-n2c(=O)ccc3cnc4ccc(-c5ccc(NS(C)(=O)=O)cc5)cc4c32)ccc1C
[6]
  % of control: 56%

## Cc1cc([C@@H](C)Nc2ccccc2C(=O)O)c2nc(N3CCOCC3)cc(=O)n2c1 [AZD-6482]
[7]
  % of control: 66%

## N#Cc1cccc(-c2c[nH]c3ncnc(N4CCOCC4)c23)c1
[8]
  % of control: 18%
[9]
  % of control: 100%
[10]
  % of inhibition: 41%

## Cc1cc(F)c(C(=O)Nc2cccc(-c3nncn3C(C)C)n2)cc1-n1cnc(C2CC2)c1
[11]
  % of control: 100%

## CNC(=O)Nc1ccc(-c2nc(N3CC4CCC(C3)O4)c3cnn(C4CCC5(CC4)OCCO5)c3n2)cc1
[12]
  % of control: 75%
[13]
  % of control: 99%

## Cc1cc(C)cc([C@@H]2c3cc(C)ccc3NC(=O)CN2C(=O)c2ccc(Br)s2)c1
[14]
  % of inhibition: -2%
